Data on 33 compounds can be found in patent US20250171438A1 (Agios Pharmaceuticals, Inc., priority 2022, published 2025).

In one assay the target is T1, human PAH with the R408W mutation (Homo sapiens, UniProt P00439, R408W).
T1 construct: expressed in transfected cells
T1 sequence (P00439 1-452 R408W): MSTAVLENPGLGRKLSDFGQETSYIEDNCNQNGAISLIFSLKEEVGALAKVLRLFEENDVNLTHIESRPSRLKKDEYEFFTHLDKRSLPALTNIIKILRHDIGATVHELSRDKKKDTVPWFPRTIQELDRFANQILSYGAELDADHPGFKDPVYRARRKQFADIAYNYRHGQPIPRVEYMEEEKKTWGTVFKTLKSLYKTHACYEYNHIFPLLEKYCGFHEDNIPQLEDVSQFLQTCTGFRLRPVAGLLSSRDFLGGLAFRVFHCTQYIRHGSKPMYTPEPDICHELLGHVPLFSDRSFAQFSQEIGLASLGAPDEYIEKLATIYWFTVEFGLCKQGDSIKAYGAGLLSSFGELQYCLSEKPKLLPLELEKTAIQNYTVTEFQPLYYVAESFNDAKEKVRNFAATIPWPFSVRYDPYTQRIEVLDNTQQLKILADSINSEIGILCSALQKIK
The assay is described as follows: Cell Based Phenylalanine Flux Assay. Particulars: A375 cells expressing human R408W PAH; 24 hrs compound incubation; 13C-Tyrosine by LC-MS; average where tested multiple times; read-out: AC50.
As a reminder, the AC50 is the concentration giving half of the maximal activity seen. Take `COCCc1nc(C)c(C(=O)N2CCc3[nH]cnc3[C@H]2c2nc3ccccc3s2)o1` [Example 1729, (S)-(4-(benzo[d]thiazol-2-yl)-1,4,6,7-tetrahydro-5H-imidazo[4,5-c]pyridin-5-yl)(2-(2-methoxyethyl)-4-methyloxazol-5-yl)methanone]: the AC50 was in the range of 500 to 1000 nM.
For `O=C(Cc1nccs1)N1CCc2[nH]cnc2[C@H]1c1nc2ccccc2s1` [Example 1037], the AC50 was in the range of 500 to 1000 nM.
For the compound `Cc1nc(-c2cnn(CC(F)(F)F)c2)oc1C(=O)N1CCc2[nH]cnc2[C@H]1c1nc2c(F)cccc2s1` [Example 1506, (S)-(4-(4-fluorobenzo[d]thiazol-2-yl)-6,7-dihydro-1H-imidazo[4,5-c]pyridin-5(4H)-yl)(4-methyl-2-(1-(2,2,2-trifluoroethyl)-1H-pyrazol-4-yl)oxazol-5-yl)methanone], the AC50 was less than 500 nM.
Take `Cc1nc(C(C)(C)O)oc1C(=O)N1CCc2[nH]cnc2[C@@H]1c1nc2c(C(F)(F)F)cccc2s1` [Example 2116, (R)-(2-(2-hydroxypropan-2-yl)-4-methyloxazol-5-yl)(4-(4-(trifluoromethyl)benzo[d]thiazol-2-yl)-6,7-dihydro-1H-imidazo[4,5-c]pyridin-5(4H)-yl)methanone]: the AC50 fell in the range of 1000 to 5000 nM.
Consider `O=C(c1cnn2ccccc12)N1CCc2[nH]cnc2[C@H]1c1nc2cccc(F)c2s1` [Example 1109, (S)-(4-(7-fluorobenzo[d]thiazol-2-yl)-6,7-dihydro-1H-imidazo[4,5-c]pyridin-5(4H)-yl)(pyrazolo[1,5-a]pyridin-3-yl)methanone], for which the AC50 fell in the range of 500 to 1000 nM.
Turning to `CC(C)(O)c1ccc2c(C(=O)N3CCc4[nH]cnc4[C@H]3c3nc4c(F)cccc4s3)cnn2c1` [Example 1501, (S)-(4-(4-fluorobenzo[d]thiazol-2-yl)-6,7-dihydro-1H-imidazo[4,5-c]pyridin-5(4H)-yl)(6-(2-hydroxypropan-2-yl)pyrazolo[1,5-a]pyridin-3-yl)methanone], the AC50 is less than 500 nM.
Regarding `CC(C)(O)/C=C/c1nc(C(F)(F)F)c(C(=O)N2CCc3[nH]cnc3[C@@H]2c2nc3ccccc3s2)o1` [Example 1570, (R,E)-(4-(benzo[d]thiazol-2-yl)-6,7-dihydro-1H-imidazo[4,5-c]pyridin-5(4H)-yl)(2-(3-hydroxy-3-methylbut-1-en-1-yl)-4-(trifluoromethyl)oxazol-5-yl)methanone], the AC50 was less than 500 nM.
On to `O=C(c1nncs1)N1CCc2[nH]cnc2[C@H]1c1nc2c(F)cccc2s1` [Example 1270, (S)-(4-(4-fluorobenzo[d]thiazol-2-yl)-6,7-dihydro-1H-imidazo[4,5-c]pyridin-5(4H)-yl)(1,3,4-thiadiazol-2-yl)methanone], for which the AC50 lay in the range of 500 to 1000 nM.
On to `N#Cc1nc(N2CCC(F)CC2)oc1C(=O)N1CCc2[nH]cnc2[C@@H]1c1nc2ccccc2s1` [Example 1652, (R)-5-(4-(benzo[d]thiazol-2-yl)-4,5,6,7-tetrahydro-1H-imidazo[4,5-c]pyridine-5-carbonyl)-2-(4-fluoropiperidin-1-yl)oxazole-4-carbonitrile], for which the concentration at half-maximal activity (AC50) is more than 5000 nM.
The same measure, in the same setting: the value for `O=C(c1nc2ccccc2s1)N1CCc2[nH]cnc2[C@H]1c1nc2ccccc2s1` [Example 1001, (S)-benzo[d]thiazol-2-yl(4-(benzo[d]thiazol-2-yl)-6,7-dihydro-1H-imidazo[4,5-c]pyridin-5(4H)-yl)methanone] was 500 to 1000 nM.
Consider `COCc1nc(Br)c(C(=O)N2CCc3[nH]cnc3[C@@H]2c2nc3c(F)cccc3s2)o1` [Example 1775, (R)-(4-bromo-2-(methoxymethyl)oxazol-5-yl)(4-(4-fluorobenzo[d]thiazol-2-yl)-6,7-dihydro-1H-imidazo[4,5-c]pyridin-5(4H)-yl)methanone], for which the AC50 was in the range of 500 to 1000 nM.
Take `Cc1ccc2nc([C@@H]3c4nc[nH]c4CCN3C(=O)c3cnco3)sc2c1` [Example 2175, (S)-(4-(6-methylbenzo[d]thiazol-2-yl)-6,7-dihydro-1H-imidazo[4,5-c]pyridin-5(4H)-yl)(oxazol-5-yl)methanone]: the AC50 fell in the range of 500 to 1000 nM.
With `Cc1nc(-c2cnn(C(C)C)c2)oc1C(=O)N1CCc2[nH]cnc2[C@@H]1c1nc2ccccc2s1` [Example 1424, (R)-(4-(benzo[d]thiazol-2-yl)-6,7-dihydro-1H-imidazo[4,5-c]pyridin-5(4H)-yl)(2-(1-isopropyl-1H-pyrazol-4-yl)-4-methyloxazol-5-yl)methanone], the AC50 lay in the range of 1000 to 5000 nM.
Regarding `Cc1ncoc1C(=O)N1CCc2[nH]cnc2[C@@H]1c1nc2c(F)cccc2s1` [Example 1320, (R)-(4-(4-fluorobenzo[d]thiazol-2-yl)-6,7-dihydro-1H-imidazo[4,5-c]pyridin-5(4H)-yl)(4-methyloxazol-5-yl)methanone], the AC50 was in the range of 1000 to 5000 nM.
Turning to `Cn1nc(C2CCC2)cc1C(=O)N1CCc2[nH]cnc2[C@H]1c1nc2c(F)cccc2s1` [Example 1853], the AC50 was in the range of 1000 to 5000 nM.
The same measure, in the same setting: the value for `CN(C)Cc1nc(C(F)F)c(C(=O)N2CCc3[nH]cnc3[C@H]2c2nc3ccccc3s2)o1` [Example 1781] was less than 500 nM.
In the case of `C=Cc1ccc2c(C(=O)N3CCc4[nH]cnc4[C@@H]3c3nc4ccccc4s3)cnn2c1` [Example 1232, (R)-(4-(benzo[d]thiazol-2-yl)-6,7-dihydro-1H-imidazo[4,5-c]pyridin-5(4H)-yl)(6-vinylpyrazolo[1,5-a]pyridin-3-yl)methanone], the AC50 fell in the range of 1000 to 5000 nM.
For the compound `O=C(N1CCc2[nH]cnc2[C@H]1c1nc2c(F)cccc2s1)C(F)(F)C1(O)CCC1` [Example 1655, (S)-2,2-difluoro-1-(4-(4-fluorobenzo[d]thiazol-2-yl)-6,7-dihydro-1H-imidazo[4,5-c]pyridin-5(4H)-yl)-2-(1-hydroxycyclobutyl)ethanone], the half-maximal activity concentration (AC50) is 500 to 1000 nM.
The same measure, in the same setting: the value for `Cn1nc(Cl)nc1C(=O)N1CCc2[nH]cnc2[C@@H]1c1nc2c(F)cccc2s1` [Example 1956, (R)-(3-chloro-1-methyl-1H-1,2,4-triazol-5-yl)(4-(4-fluorobenzo[d]thiazol-2-yl)-6,7-dihydro-1H-imidazo[4,5-c]pyridin-5(4H)-yl)methanone] was 1000 to 5000 nM; that for `Cc1cnc(CC(=O)N2CCc3[nH]cnc3[C@H]2c2nc3ccccc3s2)s1` [Example 1457] was 1000 to 5000 nM.
The same measure, in the same setting: the value for `O=C(c1scnc1C1CC1)N1CCc2[nH]cnc2[C@H]1c1nc2ccccc2s1` [Example 1387] was less than 500 nM; that for `O=C(c1cnn2cc(F)ccc12)N1CCc2[nH]cnc2[C@H]1c1nc2c(F)cccc2s1` [Example 1215, (S)-(4-(4-fluorobenzo[d]thiazol-2-yl)-6,7-dihydro-1H-imidazo[4,5-c]pyridin-5(4H)-yl)(6-fluoropyrazolo[1,5-a]pyridin-3-yl)methanone] was less than 500 nM.
For the compound `O=C(c1cnco1)N1CCc2[nH]cnc2[C@@H]1c1nc2cccc(F)c2s1` [Example 1248, (R)-(4-(7-fluorobenzo[d]thiazol-2-yl)-6,7-dihydro-1H-imidazo[4,5-c]pyridin-5(4H)-yl)(oxazol-5-yl)methanone], the AC50 lay within 1000 to 5000 nM.
`Cc1nc(CC2CC2)oc1C(=O)N1CCc2[nH]cnc2[C@H]1c1nc2ccccc2s1` [Example 1399]: the AC50 was less than 500 nM.
On the same count and under the same terms, the value for `Cc1nc(C)c(C(=O)N2CCc3[nH]cnc3[C@@H]2c2nc3c(F)cccc3s2)o1` [Example 1322, (R)-(2,4-dimethyloxazol-5-yl)(4-(4-fluorobenzo[d]thiazol-2-yl)-6,7-dihydro-1H-imidazo[4,5-c]pyridin-5(4H)-yl)methanone] was more than 5000 nM; that for `O=C(c1nnc(-c2ccccn2)o1)N1CCc2[nH]cnc2[C@@H]1c1nc2cc(F)ccc2s1` [Example 1747, (R)-(4-(5-fluorobenzo[d]thiazol-2-yl)-6,7-dihydro-1H-imidazo[4,5-c]pyridin-5(4H)-yl)(5-(pyridin-2-yl)-1,3,4-oxadiazol-2-yl)methanone] was 500 to 1000 nM; that for `O=C(c1oc(C2(O)CCC2)nc1C(F)(F)F)N1CCCc2[nH]cnc2[C@H]1c1nc2ccccc2s1` [Example 2137, (S)-(4-(benzo[d]thiazol-2-yl)-7,8-dihydroimidazo[4,5-c]azepin-5(1H,4H,6H)-yl)(2-(1-hydroxycyclobutyl)-4-(trifluoromethyl)oxazol-5-yl)methanone] was 1000 to 5000 nM.
Take `Cc1nc(C(C)(C)N(C)C)oc1C(=O)N1CCc2[nH]cnc2[C@@H]1c1nc2c(F)cccc2s1` [Example 2050, (R)-(2-(2-(dimethylamino)propan-2-yl)-4-methyloxazol-5-yl)(4-(4-fluorobenzo[d]thiazol-2-yl)-6,7-dihydro-1H-imidazo[4,5-c]pyridin-5(4H)-yl)methanone]: the AC50 lay in the range of 1000 to 5000 nM.
Regarding `O=C(c1cnn2cc(Cl)ccc12)N1CCc2[nH]cnc2[C@@H]1c1nc2c(F)cccc2s1` [Example 1238, (R)-(6-chloropyrazolo[1,5-a]pyridin-3-yl)(4-(4-fluorobenzo[d]thiazol-2-yl)-6,7-dihydro-1H-imidazo[4,5-c]pyridin-5(4H)-yl)methanone], the AC50 fell in the range of 1000 to 5000 nM.

Still in this assay, the particulars now being: A375 cells expressing human R408W PAH; 24 hrs with compound; 13C-Tyrosine by LC-MS; average where tested multiple times; read-out: AC50.
With `O=C(c1nccs1)N1CCc2[nH]cnc2C1c1nc2c(Br)cccc2s1` (stereo not drawn), the AC50 fell in the range of 1000 to 5000 nM.
On to `O=C(c1nccs1)N1CCc2nc[nH]c2C1c1nc2ccc(F)cc2s1` (stereo not drawn), for which the AC50 lay within 1000 to 5000 nM.
Regarding `O=C(Cc1nccs1)N1CCc2[nH]cnc2C1c1nc2ccc(Cl)cc2[nH]1` (stereo not drawn), the AC50 is 1000 to 5000 nM.
As to `O=C(c1cc(CO)n[nH]1)N1CCc2[nH]cnc2C1c1nc2c(F)cccc2s1` (stereo not drawn), the AC50 was more than 5000 nM.
